The record followed here is patent US9567333B2, “Triazolopyridyl compounds as aldosterone synthase inhibitors” (Merck Sharp & Dohme Corp., priority 2011, dated 2017).

One test has as its target human CYP11B2 (Homo sapiens (Human), UniProt P19099). Description: V79-Human-CYP11B2 cell assay. It is filed as cell-based. The conditions noted are these: V79 cells stably expressing human CYP11B2; 125 nM 11-deoxycorticosterone substrate; aldosterone by HTRF. As to the method:
(§1) Methods for V79-Human-CYP11B2 and V79-Human-CYP11B1 Assays: V79 cell lines stably expressing the either the human CYP11B2 or the human CYP11B1 enzyme were generated using a standard transfection protocol. V79 cells were transfected with plasmids pTriEx3-Hygro-hCyp11B2 or pTriEx3-Hygro-hCyp11B1 using Lipofectamine2000 reagent. V79 cells that stably express the human CYP11B2 or human CYP11B1 enzyme were selected for and maintained in DMEM supplemented with 10% FBS and 400 µg/mL hygromycin for ˜2 weeks. Single cell clones were generated by infinite dilution in DMEM supplemented with 10% FBS and 400 µg/mL hygromycin until single colonies were obtained. Clones V79-hCYP11B2-CLE9 and V79-hCYP11B1-8CL7, were determined to produce the most aldosterone and cortisol, respectively, and were selected for inhibitor screening. For testing of inhibitors, cells were harvested at 80% confluency with 0.05% Trypsan-EDTA, washed once in PBS, and reconstituted in DMEM+0.1% BSA media at a cell concentration of 600,000 cells/mL for the CYP11B2 assay and 280,000 cells/ml for the CYP11B1 assay. 25 μL of cells were added to a 384 well tissue culture treated plate and mixed with 0.3 μL of inhibitor or DMSO (1% final DMSO concentration) for 1 hour at 37° C., 5% CO2. After pre-incubation with inhibitor, the reaction was initiated by adding 5 μL of substrate (final concentration of 125 nM 11-deoxycorticosterone for the CYP11B2 assay or 250 nM 11-deoxycortisol for the CYP11B1 assay). The reaction was carried out for 3 hours at 37° C., 5% CO2 and was stopped by harvesting the supernatants. The amount of product in the supernatant (aldosterone for CYP11B2 assay and cortisol for the CYP11B1 assay) was measured using HTRF-based assay kit (Aldosterone HTRF-CisBio #64ALDPEB, Cortisol HTRF-CisBio #63IDC002-CORT). IC50s for the inhibitor were determined by plotting the amount of product formed against the concentration of inhibitor using sigmoidal dose-response curve (variable slope) fit in GraphPad.

The target of a further test is human CYP11B1 (Homo sapiens (Human), UniProt P15538). Description: V79-Human-CYP11B1 cell assay. It is filed as cell-based. The conditions noted are these: V79 cells stably expressing human CYP11B1; 250 nM 11-deoxycortisol substrate; cortisol by HTRF. The method, then: as §1
Chain of human CYP11B1 (P15538 25-503): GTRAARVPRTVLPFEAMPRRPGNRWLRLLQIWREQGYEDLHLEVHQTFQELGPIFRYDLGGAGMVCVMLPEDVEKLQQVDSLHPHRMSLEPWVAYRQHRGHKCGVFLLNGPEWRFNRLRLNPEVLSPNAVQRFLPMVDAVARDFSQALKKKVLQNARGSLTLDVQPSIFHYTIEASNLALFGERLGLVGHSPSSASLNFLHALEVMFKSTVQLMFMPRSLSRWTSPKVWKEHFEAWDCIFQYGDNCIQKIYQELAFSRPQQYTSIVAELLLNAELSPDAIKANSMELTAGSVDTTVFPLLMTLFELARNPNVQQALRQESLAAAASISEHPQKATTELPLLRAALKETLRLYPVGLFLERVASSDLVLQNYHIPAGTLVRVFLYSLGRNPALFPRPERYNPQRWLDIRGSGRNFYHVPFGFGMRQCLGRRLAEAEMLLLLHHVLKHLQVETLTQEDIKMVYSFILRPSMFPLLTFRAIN
A general note: TR-FRET usually uses a lanthanide donor and a delayed reading to cut background.

Bounds are passed on as bounds.

Chain of human CYP11B2 (P19099 25-503): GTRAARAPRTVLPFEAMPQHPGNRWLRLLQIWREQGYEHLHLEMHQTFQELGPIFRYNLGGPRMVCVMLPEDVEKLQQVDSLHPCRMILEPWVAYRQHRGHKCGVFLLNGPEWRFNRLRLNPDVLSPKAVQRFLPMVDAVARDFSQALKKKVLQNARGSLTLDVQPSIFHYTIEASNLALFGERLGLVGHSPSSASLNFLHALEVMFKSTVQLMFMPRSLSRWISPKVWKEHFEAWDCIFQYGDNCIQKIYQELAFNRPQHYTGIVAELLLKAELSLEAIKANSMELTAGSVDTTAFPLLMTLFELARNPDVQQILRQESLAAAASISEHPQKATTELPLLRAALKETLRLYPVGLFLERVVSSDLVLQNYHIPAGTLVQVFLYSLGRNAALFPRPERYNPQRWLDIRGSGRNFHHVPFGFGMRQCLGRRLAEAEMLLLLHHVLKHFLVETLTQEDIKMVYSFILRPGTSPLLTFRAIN

In general, IC50 refers to the point on the concentration scale where inhibition reaches its midpoint. For `c1ccc2c(-c3nc4ccccn4n3)cncc2c1` [Example 5, 4-([1,2,4]triazolo[1,5-a]pyridin-2-yl)isoquinoline], the IC50 at human CYP11B2 was 138 nM; against human CYP11B1 it was greater than 8330 nM.
On to `Clc1cccn2nc(-c3cncc4ccccc34)nc12` [Example 7, 4-(8-chloro-[1,2,4]triazolo[1,5-a]pyridin-2-yl)isoquinoline], for which the IC50 on human CYP11B2 was 171 nM; on human CYP11B1, greater than 8330 nM.
In the case of `CC(C)(O)c1cncc(-c2nc3ccc(F)cn3n2)c1` [Example 12, 2-(5-(6-fluoro-[1,2,4]triazolo[1,5-a]pyridin-2-yl)pyridin-3-yl)propan-2-ol], the IC50 against human CYP11B2 was 1070 nM; at human CYP11B1, greater than 8330 nM.
`Cc1cccc2nc(-c3cncc(Br)c3)nn12` [Example 13, 2-(5-bromopyridin-3-yl)-5-methyl-[1,2,4] triazolo[1,5-a]pyridine]: the values for the IC50 against human CYP11B2 and against human CYP11B1 were 884 nM and greater than 8330 nM, respectively.
As for `Fc1cc(F)c2nc(-c3cncc4ccccc34)nn2c1` [Example 18, 4-(6,8-difluoro-[1,2,4]triazolo[1,5-a]pyridin-2-yl)isoquinoline], the IC50 at human CYP11B2 was 126 nM; against human CYP11B1, greater than 8330 nM.
For the compound `Fc1ccn2nc(-c3cncc4ccccc34)nc2c1` [Example 20, 4-(7-fluoro-[1,2,4]triazolo[1,5-a]pyridin-2-yl)isoquinoline], the IC50 at human CYP11B2 is 22 nM; against human CYP11B1, 1080 nM.
For `Fc1ccc2nc(-c3cncc4ccccc34)nn2c1` [Example 21, 4-(6-fluoro-[1,2,4]triazolo[1,5-a]pyridin-2-yl)isoquinoline], the figures for the IC50 against human CYP11B2 and on human CYP11B1 were 46 nM and 2150 nM, respectively.
